Measured values: US9850283B2, “Macrocyclic inhibitors of the PD-1/PD-L1 and CD80(B7-1)/PD-L1 protein/protein interactions” (BRISTOL-MYERS SQUIBB COMPANY, priority 2013, dated 2017)
Read-outs that look alike come from different tables or passages of the source. Positions of bridges follow the written chain, without caps; N, C: chain ends. Non-standard residues stand in square brackets, D forms with d. Residues, ends and D or L forms follow the SMILES beside them. ξ: configuration not given here. Ala(indol-4-yl) = N[C@@H](Cc1cccc2[nH]ccc12)C(=O)O; Phe(3,4,5-F3) = N[C@@H](Cc1cc(F)c(F)c(F)c1)C(=O)O; Phe(4-CH2NH2) = NCc1ccc(C[C@H](N)C(=O)O)cc1; Phe(4-F) = N[C@@H](Cc1ccc(F)cc1)C(=O)O; Bta = N[C@@H](Cc1csc2ccccc12)C(=O)O; Hyp = O=C(O)[C@@H]1C[C@@H](O)CN1; NMeF = CN[C@@H](Cc1ccccc1)C(=O)O; NMeNle = CCCC[C@H](NC)C(=O)O; NMeA = CN[C@@H](C)C(=O)O; Orn = NCCC[C@H](N)C(=O)O; Dab = NCC[C@H](N)C(=O)O; Dap = NC[C@H](N)C(=O)O; ξOrn = NCCCC(N)C(=O)O; ξP = O=C(O)C1CCCN1; Sar = CNCC(=O)O

Tests used:
Human PD-L1/PD-1 = target: T1, Human PD-L1/PD-1 (Homo sapiens, UniProt Q9NZQ7); test: HTRF PD-1-Ig/PD-L1-His binding assay (human PD-L1); conditions: cluster symbol; read-out: HTRF IC50 cluster
T1 construct: made in house; host or cells: HEK293T
T1 sequence (Q9NZQ7 with tags, fused parts or gaps): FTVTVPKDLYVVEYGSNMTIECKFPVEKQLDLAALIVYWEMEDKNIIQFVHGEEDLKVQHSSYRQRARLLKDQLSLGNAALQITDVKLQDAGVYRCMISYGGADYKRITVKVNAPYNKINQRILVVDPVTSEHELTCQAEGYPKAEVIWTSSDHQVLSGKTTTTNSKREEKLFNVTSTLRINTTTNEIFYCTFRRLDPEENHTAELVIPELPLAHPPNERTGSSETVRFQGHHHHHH
Method in brief: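 Readout: time-resolved FRET between Eu cryptate-labeled anti-Ig (1 nM final) and APC-labeled anti-His (20 nM final) antibodies. These detect interaction of Fc-fused PD-1 with His-tagged human PD-L1 in dPBS containing 0.1% BSA and 0.05% Tween-20.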

[1] = target: T2, LK35.2-hPD-L1 cells / PE-labeled PD-1-Ig (Homo sapiens, UniProt Q9NZQ7); test: LK35.2-hPD-L1 cell binding high-content screening assay; format: cell-based; conditions: cluster symbol, read-out: CBA IC50 cluster
T2 construct: expressed in transfected cells; host or cells: LK35.2 mouse B cell line
T2 sequence (Q9NZQ7 19-290): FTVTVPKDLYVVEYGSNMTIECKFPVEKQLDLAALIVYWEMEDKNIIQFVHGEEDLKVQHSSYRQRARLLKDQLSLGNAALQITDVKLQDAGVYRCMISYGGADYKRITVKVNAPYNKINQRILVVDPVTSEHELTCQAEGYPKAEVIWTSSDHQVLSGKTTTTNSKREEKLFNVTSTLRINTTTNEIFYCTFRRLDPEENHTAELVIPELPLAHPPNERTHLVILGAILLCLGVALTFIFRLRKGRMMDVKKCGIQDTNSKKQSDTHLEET
Method in brief: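 Using overnight-cultured LK35.2-hPD-L1 mouse B cells, compound was co-incubated with phycoerythrin-tagged human PD-1-Ig (final 1 nM) at 37 °C for one hour. Unbound label was removed by triple dPBS washing prior to high-content image acquisition and analysis.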

[2] = cell line of CBA not given (LK35.2-hPD-L1 or 293T-hPD-L1)
[3] = cell binding assay, cell line not given

| Structure (SMILES) | IC50 (Human PD-L1/PD-1) [nM] | IC50 [1, 2] [nM] | IC50 [1, 3] [nM] |
| --- | --- | --- | --- |
| CCCC[C@H]1C(=O)N(C)[C@@H](CCCC)C(=O)N[C@@H](CCCN)C(=O)N[C@H](C(=O)NCC(N)=O)CSCC(=O)N[C@@H](Cc2ccc(O)cc2)C(=O)N(C)[C@@H](C)C(=O)N[C@@H](CC(=O)O)C(=O)N2CCC[C@H]2C(=O)N[C@@H](CN)C(=O)N[C@@H](CCC(N)=O)C(=O)N2C[C@H](O)C[C@H]2C(=O)N[C@@H](Cc2c[nH]c3ccccc23)C(=O)N[C@@H](CCN)C(=O)N[C@@H](Cc2csc3ccccc23)C(=O)N1C [Example 1182] ({CH2CO}-Y[NMeA]DP[Dap]Q[Hyp]W[Dab][Bta][NMeNle][NMeNle][Orn]CG-NH2; thioether N-14) | 0.385 to 6.74 | 0.158 to 4.71 | – |
| CCCC[C@H]1C(=O)N(C)[C@@H](CCCC)C(=O)NC(CCCN)C(=O)N[C@H](C(=O)NCC(N)=O)CSCC(=O)N[C@@H](Cc2ccc(O)cc2)C(=O)N(C)[C@@H](C)C(=O)N[C@@H](CC(N)=O)C(=O)N2CCCC2C(=O)N[C@@H](Cc2cnc[nH]2)C(=O)N[C@@H](CC(C)C)C(=O)N2CCC[C@H]2C(=O)N[C@@H](Cc2c[nH]c3ccccc23)C(=O)N[C@@H](CO)C(=O)N[C@@H](Cc2csc3ccccc23)C(=O)N1C (stereo partly shown) [Example 1042] ({CH2CO}-Y[NMeA]N[ξP]HLPWS[Bta][NMeNle][NMeNle][ξOrn]CG-NH2; thioether N-14) | 0.385 to 6.74 | 0.158 to 4.71 | – |
| CCCC[C@H]1C(=O)N(C)CC(=O)N[C@@H](CC(=O)O)C(=O)N[C@@H](C(C)C)C(=O)N(C)[C@@H](Cc2ccccc2)C(=O)N[C@@H](Cc2ccc(O)cc2)C(=O)N(C)CC(=O)N[C@@H](Cc2c[nH]c3ccccc23)C(=O)N[C@@H](Cc2ccc(O)cc2)C(=O)N[C@@H](CCCNC(=N)N)C(=O)N[C@H](C(=O)NCC(N)=O)CSCC(=O)N[C@@H](Cc2ccccc2)C(=O)N(C)[C@@H](Cc2ccccc2)C(=O)N1C [Example 3508] (HELM PEPTIDE1{[O=C(C[*:3])[*:2]].F.[meF].[CCCC[C@@H](C(=O)[*:2])N(C)[*:1]].[Sar].D.V.[meF].Y.[Sar].W.Y.R.C.G.[am]}$PEPTIDE1,PEPTIDE1,1:R3-14:R3$$$V2.0) | 0.385 to 6.74 | – | 4.78 to 72.9 |
| CCCC[C@H]1C(=O)N(C)[C@@H](CCCC)C(=O)N[C@@H](CC(C)C)C(=O)N[C@H](C(=O)NCC(N)=O)CSCC(=O)N[C@@H](Cc2ccc(O)cc2)C(=O)N(C)[C@@H](C)C(=O)N[C@@H](CC(N)=O)C(=O)N2CCC[C@H]2C(=O)N[C@@H](CN)C(=O)N[C@@H](CC(C)C)C(=O)N2C[C@H](O)C[C@H]2C(=O)N[C@@H](Cc2c[nH]c3ccccc23)C(=O)N[C@@H](CO)C(=O)N[C@@H](Cc2c[nH]c3ccccc23)C(=O)N1C [Example 5070] ({CH2CO}-Y[NMeA]NP[Dap]L[Hyp]WSW[NMeNle][NMeNle]LCG-NH2; thioether N-14) | 0.385 to 6.74 | – | 0.158 to 4.71 |
| CCCC[C@H]1C(=O)N(C)CC(=O)N[C@@H](CC(=O)O)C(=O)N[C@@H](C(C)C)C(=O)N(C)[C@@H](Cc2ccccc2)C(=O)N[C@@H](CCCNC(=N)N)C(=O)N(C)CC(=O)N[C@@H](Cc2c[nH]c3ccccc23)C(=O)N[C@@H](Cc2ccc(O)cc2)C(=O)N[C@@H](CCC(=O)O)C(=O)N[C@H](C(=O)NCC(N)=O)CSCC(=O)N[C@@H](Cc2ccccc2)C(=O)N(C)[C@@H](Cc2ccccc2)C(=O)N1C [Example 3542] (HELM PEPTIDE1{[O=C(C[*:3])[*:2]].F.[meF].[CCCC[C@@H](C(=O)[*:2])N(C)[*:1]].[Sar].D.V.[meF].R.[Sar].W.Y.E.C.G.[am]}$PEPTIDE1,PEPTIDE1,1:R3-14:R3$$$V2.0) | 6.76 to 30.3 | – | 4.78 to 72.9 |
| CCCC[C@H]1C(=O)N(C)CC(=O)N[C@@H](CC(=O)O)C(=O)N[C@@H](C(C)C)C(=O)N(C)[C@@H](Cc2ccccc2)C(=O)N[C@@H](Cc2ccc(CN)cc2)C(=O)N(C)CC(=O)N[C@@H](Cc2c[nH]c3ccccc23)C(=O)N[C@@H](Cc2ccc(O)cc2)C(=O)N[C@@H](CC(C)C)C(=O)N[C@H](C(=O)NCC(N)=O)CSCC(=O)N[C@@H](Cc2ccc(F)cc2)C(=O)N(C)[C@@H](Cc2ccccc2)C(=O)N1C [Example 3123] ({CH2CO}-[Phe(4-F)][NMeF][NMeNle][Sar]DV[NMeF][Phe(4-CH2NH2)][Sar]WYLCG-NH2; thioether N-13) | 6.76 to 30.3 | 0.158 to 4.71 | – |
| CCCC[C@H]1C(=O)N2CCC[C@@H]2C(=O)N[C@@H](CO)C(=O)N[C@@H](C(C)C)C(=O)N(C)[C@@H](Cc2ccccc2)C(=O)N[C@@H](Cc2ccc(CN)cc2)C(=O)N2CCC[C@@H]2C(=O)N[C@@H](Cc2c[nH]c3ccccc23)C(=O)N[C@@H](Cc2ccc(O)cc2)C(=O)N[C@@H](CCCCN)C(=O)N[C@H](C(=O)NCC(N)=O)CSCC(=O)N[C@@H](Cc2cc(F)c(F)c(F)c2)C(=O)N(C)[C@@H](Cc2ccccc2)C(=O)N1C [Example 3199] ({CH2CO}-[Phe(3,4,5-F3)][NMeF][NMeNle][dP]SV[NMeF][Phe(4-CH2NH2)][dP]WYKCG-NH2; thioether N-13) | 6.76 to 30.3 | 0.158 to 4.71 | – |
| CCCC[C@H]1C(=O)N(C)[C@@H](CCCC)C(=O)N[C@@H](CO)C(=O)N[C@H](C(=O)NCC(N)=O)CSCC(=O)N[C@@H](Cc2ccc(O)cc2)C(=O)N(C)[C@@H](C)C(=O)N[C@@H](CCN)C(=O)N2CCC[C@H]2C(=O)N[C@@H](CO)C(=O)N[C@@H](CCC(=O)O)C(=O)N2C[C@H](O)C[C@H]2C(=O)N[C@@H](Cc2c[nH]c3ccccc23)C(=O)N[C@@H](CO)C(=O)N[C@@H](Cc2c[nH]c3ccccc23)C(=O)N1C [Example 5119] ({CH2CO}-Y[NMeA][Dab]PSE[Hyp]WSW[NMeNle][NMeNle]SCG-NH2; thioether N-14) | 0.385 to 6.74 | – | 4.78 to 72.9 |
| CCCC[C@H]1C(=O)N(C)[C@@H](CCCC)C(=O)N[C@@H](CC(=O)O)C(=O)N[C@H](C(=O)NCC(N)=O)CSCC(=O)N[C@@H](Cc2ccc(O)cc2)C(=O)N(C)[C@@H](C)C(=O)N[C@@H](CC(N)=O)C(=O)N2CCC[C@H]2C(=O)N[C@@H](Cc2c[nH]cn2)C(=O)N[C@@H](CCC(N)=O)C(=O)N2C[C@H](O)C[C@H]2C(=O)N[C@@H](Cc2c[nH]c3ccccc23)C(=O)N[C@@H](CO)C(=O)N[C@@H](Cc2c[nH]c3ccccc23)C(=O)N1C [Example 5103] ({CH2CO}-Y[NMeA]NPHQ[Hyp]WSW[NMeNle][NMeNle]DCG-NH2; thioether N-14) | 6.76 to 30.3 | – | 4.78 to 72.9 |
| CCCC[C@H]1C(=O)N(C)CC(=O)N[C@@H](CC(=O)O)C(=O)N[C@@H](C(C)C)C(=O)N(C)[C@@H](Cc2ccccc2)C(=O)N[C@@H](Cc2cccc3[nH]ccc23)C(=O)N(C)CC(=O)N[C@@H](Cc2c[nH]c3ccccc23)C(=O)N[C@@H](Cc2ccc(O)cc2)C(=O)N[C@@H](CC(C)C)C(=O)N[C@H](C(=O)NCC(N)=O)CSCC(=O)N[C@@H](Cc2ccccc2)C(=O)N(C)[C@@H](Cc2ccccc2)C(=O)N1C [Example 3110] ({CH2CO}-F[NMeF][NMeNle][Sar]DV[NMeF][Ala(indol-4-yl)][Sar]WYLCG-NH2; thioether N-13) | 6.76 to 30.3 | 0.158 to 4.71 | – |
| CCCC[C@H]1C(=O)N(C)CC(=O)N[C@@H](CC(=O)O)C(=O)N[C@@H](C(C)C)C(=O)N(C)[C@@H](Cc2ccccc2)C(=O)N[C@@H](Cc2ccc(O)cc2)C(=O)N(C)CC(=O)N[C@@H](Cc2c[nH]c3ccccc23)C(=O)N[C@@H](Cc2ccc(O)cc2)C(=O)N[C@@H](CC(C)C)C(=O)N[C@H](C(=O)NCC(N)=O)CSCC(=O)N(C)[C@@H](Cc2ccccc2)C(=O)N1C [Example 3052] (HELM PEPTIDE1{[O=C(C[*:3])[*:2]].[meF].[CCCC[C@@H](C(=O)[*:2])N(C)[*:1]].[Sar].D.V.[meF].Y.[Sar].W.Y.L.C.G.[am]}$PEPTIDE1,PEPTIDE1,1:R3-13:R3$$$V2.0) | > 30.5 | > 74.3 | – |
